Common to all, as to type: physicochemical
Series [1] can be described thus: Stability of Everolimus gamma CD complex versus amorphous Everolimus (powder) at 60° C., total impurities (HPLC). Particulars: powder 60° C. As to the method: For the HPLC determination of the chromatographic purity of Temsirolimus and Everolimus: Column: Zorbax SB-C18; 3.5 μm (75×4.6 mm), Precolumn: Symmetry Shield RP18; 5 μm (20×3.9 mm).
Mobile Phase composition: • Component A: 900 ml of water, 100 ml of acetonitrile and 50 μl of 50% aqueous acetic acid • Component B: 1000 ml of acetonitrile and 50 μl of 50% aqueous acetic acid Gradient elution: […]
Flow rate: 1 ml/min. Column temperature: 60° C. Volume of injection: 20 μl.
Sample preparation: solution of 0.5 mg/ml in acetonitrile. Detector UV: 278 nm
The stability data on Everolimus complex with CD prepared according each of the examples 2 and 3 are reported on FIG. 3 and on Table 7.
In particular, in FIG. 3, are reported the sum of the related by products originated by degradation (HPLC data in area %) during a stability tests performed on the powder at 60° C. for 96 hours.

Series [2] can be described thus: Stability of amorphous and crystalline Rapamycin at 60° C. (HPLC chromatographic purity). The following applies: for decrease of chromatographic purity: after 408 hours (17 days). On the procedure:
For the HPLC determination of chromatographic purity of Rapamycin: Column: Thermo BDS Hypersil C18; 3 μm (100×4.6 mm). Mobile Phase composition: isocratic elution • Component A: 50% acetonitrile • Component B: 50% ammonium acetate buffer pH 5.8 (concentration 0.8 g/l of ammonium acetate; the final pH value was brought to a final value of 5.8 with glacial acetic acid)
Flow rate: 1.0 ml/min. Column temperature: 55° C. Volume of injection: 100 μl.
Sample solution: weight 25 mg of Rapamycin and dissolve in 100 ml of acetonitrile/water 1/1 v/v (final concentration 0.25 mg/ml). UV detector: 278 nm

Series [3] can be described thus: Preliminary stability tests on micronized Rapamycin and in solution (ethanol). Particulars: finely micronized (10^−5 microns) and in solution (ethanol), within few hours. The text has this: In order to proceed with formulative studies we have performed preliminary stability tests on micronized Rapamycin (10^−5 microns) and in solution (ethanol).

Consider `CO[C@H]1C[C@@H]2CC[C@@H](C)[C@@](O)(O2)C(=O)C(=O)N2CCCC[C@H]2C(=O)O[C@H]([C@H](C)C[C@@H]2CC[C@@H](OCCO)[C@H](OC)C2)CC(=O)[C@H](C)/C=C(\C)[C@@H](O)[C@@H](OC)C(=O)[C@H](C)C[C@H](C)/C=C/C=C/C=C/1C` [Amorphous Everolimus, Everolimus], for which the “HPLC area % of total impurities” value in series [1] (0 hours) worked out at 1.5 area %; in series [1] (24 hours), 2.44 area %; in series [1] (48 hours), 4.52 area %; in series [1] (72 hours), 7.1 area %; in series [1] (96 hours), 9.2 area %; in series [1] (168 hours), 14.1 area %.
`CO[C@H]1C[C@@H]2CC[C@@H](C)[C@@](O)(O2)C(=O)C(=O)N2CCCC[C@H]2C(=O)O[C@H]([C@H](C)C[C@@H]2CC[C@@H](O)[C@H](OC)C2)CC(=O)[C@H](C)/C=C(\C)[C@@H](O)[C@@H](OC)C(=O)[C@H](C)C[C@H](C)/C=C/C=C/C=C/1C` [Amorphous Rapamycin, Rapamycin]: the “chromatographic purity (HPLC data)” value in series [2] (0 hours) stood at 98.90 area %; in series [2] (20 hours) it was 93.00 area %; in series [2] (96 hours), 90.00 area %; in series [2] (168 hours), 88.00 area %; in series [2] (408 hours) it was 84.90 area %. The “decrease of chromatographic purity” value in series [2] is given as −14%.
With `CO[C@H]1C[C@@H]2CC[C@@H](C)[C@@](O)(O2)C(=O)C(=O)N2CCCC[C@H]2C(=O)O[C@H]([C@H](C)C[C@@H]2CC[C@@H](O)[C@H](OC)C2)CC(=O)[C@H](C)/C=C(\C)[C@@H](O)[C@@H](OC)C(=O)[C@H](C)C[C@H](C)/C=C/C=C/C=C/1C` [Crystalline Rapamycin, Rapamycin], the “chromatographic purity (HPLC data)” value in series [2] (0 hours) came out at 99.10 area %; in series [2] (20 hours), 99.10 area %; in series [2] (96 hours) it was 99.10 area %; in series [2] (168 hours), 99.00 area %; in series [2] (408 hours), 99.00 area %. Further, in series [2], the “decrease of chromatographic purity” value is “the same chromatographic purity”.
As to `CO[C@H]1C[C@@H]2CC[C@@H](C)[C@@](O)(O2)C(=O)C(=O)N2CCCC[C@H]2C(=O)O[C@H]([C@H](C)C[C@@H]2CC[C@@H](O)[C@H](OC)C2)CC(=O)[C@H](C)/C=C(\C)[C@@H](O)[C@@H](OC)C(=O)[C@H](C)C[C@H](C)/C=C/C=C/C=C/1C` [Rapamycin], the “decrease in the assay value” in series [3] is −10%.

The values are drawn from patent US9169269B2, “Water-soluble solid pharmaceutical inclusion complexes and their aqueous solutions for oral, ophthalmic, topical or parenteral use containing a macrolide and certain cyclodextrins” (EUTICALS SPA, priority 2010, dated 2015).
